A value given as a limit tells only on which side of the number the result lay.

T1 sequence (P21728 whole entry): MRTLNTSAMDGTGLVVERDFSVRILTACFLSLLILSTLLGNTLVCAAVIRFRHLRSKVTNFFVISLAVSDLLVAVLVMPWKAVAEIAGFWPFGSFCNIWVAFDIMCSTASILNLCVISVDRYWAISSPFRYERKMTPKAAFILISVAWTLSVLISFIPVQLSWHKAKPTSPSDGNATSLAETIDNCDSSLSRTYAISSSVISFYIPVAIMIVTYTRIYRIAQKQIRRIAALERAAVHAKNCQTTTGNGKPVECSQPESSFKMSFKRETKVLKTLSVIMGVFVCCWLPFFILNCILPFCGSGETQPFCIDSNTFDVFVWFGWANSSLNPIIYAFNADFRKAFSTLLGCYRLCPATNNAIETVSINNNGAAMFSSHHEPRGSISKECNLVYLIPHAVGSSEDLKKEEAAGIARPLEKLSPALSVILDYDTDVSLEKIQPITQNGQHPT

This experiment concerns the target T1, dopamine D1 receptor (Homo sapiens, UniProt P21728).
T1 construct: host or cells: LMtk (Ltk-) mouse fibroblast cells
Kind of experiment: cAMP HTRF potentiation assay (presence of EC20 dopamine). Format: cell-based. To be noted: potentiation of cAMP in presence of EC20 dopamine (1.1 nM); LMtk (Ltk-) mouse fibroblast cells expressing the dopamine D1 receptor. An excerpt: The present assay allows to measure respectively the effects of compounds of the Examples in the absence of dopamine (“activation assay”) and the effects of compounds of the Examples in the presence of dopamine (“potentiation assay”).
The potentiation assay measures the ability of compounds to increase the levels of cAMP produced by a low-threshold concentration of dopamine. The concentration of dopamine used ([EC20]) is designed to produce 20% stimulation compared to the maximal response (100%) seen with increasing the concentration of dopamine. To measure this potentiation we incubate increasing concentrations of the compound with the [EC2O] of dopamine and measure the potentiation as increases in cAMP production. The pEC50 of a compound is the −log 10 of the concentration of the compound which produces 50% of the potentiation of the cAMP levels and the Erel is the relative efficacy, defined as the maximal % potentiation produced by the compound compared to the maximal response produced by increasing concentrations of dopamine (Erel of 1=dopamine maximum response).
Cells were cultured at 37° C. in a humidified atmosphere of 5% CO2. Cells were grown in DMEM-F12+GlutaMAX™-I medium (GIBCO®, Invitrogen, Merelbeke, Belgium) containing 10% fetal bovine serum (BioWhittaker®, Lonza, Verviers, Belgium), 400 μg/mL Geneticin (GIBCO®), 100 IU/mL Penicillin and 100 IU/mL Streptomycin (Pen-Strep solution, BioWhittaker®).
The measurement of changes in intracellular cyclic adenosinemonophopshpate (cAMP) was determined using the HTRF cAMP dynamic assay kit from CisBio (Codolet, France). Using homogenous time-resolved fluoresence technology, the assay is based on competition between native cAMP produced by cells and cAMP labelled with the dye d2. The tracer binding is determined by an anti-cAMP antibody labeled with cryptate. The effects of the compound alone (agonism) was determined by performing the assay in the absence of dopamine, whilst the effect of the compound as a positive allosteric modulator (PAM) was determined in the presence of an EC20 concentration of dopamine. Cells (20,000 per well) are incubated in 384 plates for 1 hour at room temperature in a final volume of 20 μLHBSS (Lonza, with calcium, magnesium and HEPES buffer 20 mM, pH 7.4) containing: isobutyl methylxanthine (Sigma, 0.1 mM final), varying concentrations of test compound (typically […] to 10^−4.5M) in the presence and absence of dopamine (1.1 nM final). The reaction is then terminated and the cells lysed by adding the d2 detection reagent in lysis buffer (10 microL) and the cryptate reagent in lysis buffer (10 microl) according to manufacturer's instructions. This is then incubated for a further 60 min at room temperature and changes in HTRF fluorescent emission ratio determined according to manufacturer's instructions using an Envision plate reader (Perkin Elmer, Zaventem, Belgium) with laser excitation. All incubations were performed in duplicate and results were compared to a concentration-effect curve to dopamine. (10^−11M to 10^−6M).
Data was analyzed using Excel and PRISM (GraphPad Software) to obtain pEC50 and Erel using the 4-parameter logistic equation (DeLean et al, 1978) where Erel is the fitted maximal response of the test compound minus basal expressed as a percentage relative to that obtained with dopamine which was defined as 100%.
Regarding `C[C@H]1c2cccc([C@@](C)(O)CF)c2CCN1C(=O)Cc1c(Cl)ccc2[nH]nc(Cl)c12` [Example 2, 2-(3,5-dichloro-1H-indazol-4-yl)-1-[(1S)-5-[(1R)-2-fluoro-1-hydroxy-1-methyl-ethyl]-1-methyl-3,4-dihydro-1H-isoquinolin-2-yl]ethanone], the 50% effective concentration (EC50) is at most 31.6 nM.

Turning to `C[C@H]1c2cccc(C(C)(O)C(F)F)c2CCN1C(=O)Cc1c(Cl)c(C#N)cn2ncc(Cl)c12` (single isomer, unassigned) [Example 32], the EC50 was at most 31.6 nM.

Regarding `C[C@H]1c2cccc([C@](C)(O)CF)c2CCN1C(=O)Cc1c(Cl)ccn2ncc(Cl)c12` [Example 29, 2-(3,5-dichloropyrazolo[1,5-a]pyridin-4-yl)-1-[(1S)-5-[(1S)-2-fluoro-1-hydroxy-1-methyl-ethyl]-1-methyl-3,4-dihydro-1H-isoquinolin-2-yl]ethanone], the EC50 is at most 31.6 nM.

These data come from patent US10370355B2, “Tetrahydroisoquinoline derivatives” (UCB Biopharma SPRL, priority 2016, dated 2019).
